# Results as given in PubChem BioAssay AID210 (DTP/NCI, 2004).
# Inconclusive results and toxic doses are left out.
# Test system: CD2F1 mice, ip Colon 26 adenocarcinoma, median survival T/C
# Assay: NCI In Vivo Anticancer Drug Screen. Data for tumor model Colon 26 Adenocarcinoma (intraperitoneal) in CD2F1 (CDF1) mice
# Settings: endpoint: median survival time, higher = longer survival
# Procedure: The antitumor activity of compounds was measured in mice bearing transplantable tumors. Survival or tumor size were measured and the results are expressed as the measurement made in the treated group (T) divided by the measurement made in the vehicle treated control group (C). The tumor model used in this assay is Colon 26 Adenocarcinoma (intraperitoneal) in CD2F1 (CDF1) mice
smiles,measurement,setting,value
CO[C@@]12[C@H](COC(N)=O)C3=C(C(=O)C(C)=C(N)C3=O)N1C[C@@H]1N[C@@H]12,T/C,"dose: 1.0 mg/kg/injection, schedule: Q01DX004 (ip), vehicle: saline",122 % of control
same,T/C,"dose: 1.0 mg/kg/injection, schedule: Q03DX002 (ip), vehicle: saline",120 % of control
same,T/C,"dose: 2.0 mg/kg/injection, schedule: Q01DX005 (ip), vehicle: saline",96 % of control
same,T/C,"dose: 2.0 mg/kg/injection, schedule: Q03DX002 (ip), vehicle: saline",113 % of control
same,T/C,"dose: 2.0 mg/kg/injection, schedule: Q07DX003 (ip), vehicle: Klucel (hydroxypropylcellulose) (HPC)",195 % of control
same,T/C,"dose: 2.0 mg/kg/injection, schedule: Q07DX003 (ip), vehicle: saline",152 % of control
same,T/C,"dose: 2.9 mg/kg/injection, schedule: Q07DX003 (ip), vehicle: Klucel (hydroxypropylcellulose) (HPC)",183 % of control
same,T/C,"dose: 2.9 mg/kg/injection, schedule: Q07DX003 (ip), vehicle: saline",169 % of control
same,T/C,"dose: 3.0 mg/kg/injection, schedule: Q01DX004 (ip), vehicle: saline",114 % of control
same,T/C,"dose: 3.0 mg/kg/injection, schedule: Q01DX005 (ip), vehicle: saline",110 % of control
same,T/C,"dose: 3.0 mg/kg/injection, schedule: Q03DX002 (ip), vehicle: saline",117 % of control
same,T/C,"dose: 4.2 mg/kg/injection, schedule: Q07DX003 (ip), vehicle: Klucel (hydroxypropylcellulose) (HPC)",223 % of control
same,T/C,"dose: 4.2 mg/kg/injection, schedule: Q07DX003 (ip), vehicle: saline",190 % of control
same,T/C,"dose: 4.5 mg/kg/injection, schedule: Q01DX005 (ip), vehicle: saline",114 % of control
same,T/C,"dose: 4.5 mg/kg/injection, schedule: Q03DX002 (ip), vehicle: saline",110 % of control
same,T/C,"dose: 6.0 mg/kg/injection, schedule: Q01DX005 (ip), vehicle: saline",121 % of control
same,T/C,"dose: 6.0 mg/kg/injection, schedule: Q07DX003 (ip), vehicle: Klucel (hydroxypropylcellulose) (HPC)",87 % of control
same,T/C,"dose: 6.0 mg/kg/injection, schedule: Q07DX003 (ip), vehicle: saline",231 % of control
COc1ccc2cc1Oc1ccc(cc1)C[C@H]1c3cc(c(OC)cc3CCN1C)Oc1c(OC)c(OC)cc3c1[C@H](C2)N(C)CC3,T/C,"dose: 12.5 mg/kg/injection, schedule: Q04DX003 (ip), vehicle: saline with Tween-80",92 % of control
same,T/C,"dose: 25.0 mg/kg/injection, schedule: Q04DX003 (ip), vehicle: saline with Tween-80",101 % of control
same,T/C,"dose: 50.0 mg/kg/injection, schedule: Q04DX003 (ip), vehicle: saline with Tween-80",92 % of control
same,T/C,"dose: 100.0 mg/kg/injection, schedule: Q04DX003 (ip), vehicle: saline with Tween-80",94 % of control
same,T/C,"dose: 200.0 mg/kg/injection, schedule: Q04DX003 (ip), vehicle: saline with Tween-80",101 % of control
NC(C/[N+]([O-])=N/O)C(=O)O (stereo unspecified),T/C,"dose: 8.78 mg/kg/injection, schedule: Q01DX010 (ip), vehicle: alkali diluted with saline",99 % of control
same,T/C,"dose: 13.2 mg/kg/injection, schedule: Q01DX010 (ip), vehicle: alkali diluted with saline",100 % of control
same,T/C,"dose: 19.8 mg/kg/injection, schedule: Q01DX010 (ip), vehicle: alkali diluted with saline",96 % of control
same,T/C,"dose: 29.6 mg/kg/injection, schedule: Q01DX010 (ip), vehicle: alkali diluted with saline",113 % of control
same,T/C,"dose: 44.4 mg/kg/injection, schedule: Q01DX010 (ip), vehicle: alkali diluted with saline",104 % of control
same,T/C,"dose: 66.7 mg/kg/injection, schedule: Q01DX010 (ip), vehicle: alkali diluted with saline",95 % of control
COC(OC(CO)C(O)S(=O)(=O)O)C(O)S(=O)(=O)O (stereo unspecified),T/C,"dose: 12.5 mg/kg/injection, schedule: Q04DX003 (ip), vehicle: saline",97 % of control
same,T/C,"dose: 25.0 mg/kg/injection, schedule: Q04DX003 (ip), vehicle: saline",102 % of control
same,T/C,"dose: 50.0 mg/kg/injection, schedule: Q04DX003 (ip), vehicle: saline",102 % of control
same,T/C,"dose: 100.0 mg/kg/injection, schedule: Q04DX003 (ip), vehicle: saline",108 % of control
same,T/C,"dose: 200.0 mg/kg/injection, schedule: Q04DX003 (ip), vehicle: saline",109 % of control
same,T/C,"dose: 400.0 mg/kg/injection, schedule: Q04DX003 (ip), vehicle: saline",100 % of control
COC(=O)[C@@]12OC[C@]34[C@H]([C@@H](O)[C@@H]1O)[C@@]1(C)CC(=O)C(O)=C(C)[C@@H]1C[C@H]3OC(=O)[C@H](OC(=O)/C=C(\C)C(C)C)[C@@H]24,T/C,"dose: 0.66 mg/kg/injection, schedule: Q04DX003 (iv), vehicle: saline with Tween-80",97 % of control
same,T/C,"dose: 1.0 mg/kg/injection, schedule: Q04DX003 (iv), vehicle: saline with Tween-80",94 % of control
same,T/C,"dose: 1.5 mg/kg/injection, schedule: Q04DX003 (iv), vehicle: saline with Tween-80",94 % of control
same,T/C,"dose: 2.3 mg/kg/injection, schedule: Q04DX003 (iv), vehicle: saline with Tween-80",92 % of control
same,T/C,"dose: 3.5 mg/kg/injection, schedule: Q04DX003 (iv), vehicle: saline with Tween-80",96 % of control
NC(=O)c1cn(C2OC(CO)C(O)C2O)c2ncnc(N)c12 (stereo unspecified),T/C,"dose: 2.0 mg/kg/injection, schedule: Q04DX003 (ip), vehicle: Klucel (hydroxypropylcellulose) (HPC)",156 % of control
